From publication PMC11784221, “Platelet factor 4-derived C15 peptide broadly inhibits enteroviruses by disrupting viral attachment” (Journal of Virology, 2025)
Where no end group is shown, it is not given here.

Tests used:
CA6 [1] = conditions: read-out: EC50 for CA6; RD cells, 48 h, intracellular VP1 mRNA by RT-qPCR vs GAPDH, three independent experiments, four-parameter fit
EV71 = conditions: read-out: EC50 for EV71; RD cells, 48 h, intracellular VP1 mRNA by RT-qPCR vs GAPDH, three independent experiments, four-parameter fit
[2] = C15 alone in neonatal mice without CA6 infection (toxicity); type: in vivo, ICR mice
Experimental: To investigate the anti-viral efficacy of C15 against CA6 in vivo, we established a lethal infection model using 1-day-old ICR mice. The mice were infected with CA6 at a concentration of 10^7 TCID50 and then treated with two different concentrations of C15 (1 and 5 mg/kg). The mice were monitored over a period of 7 days to assess various indicators (Fig. 7A). The mice in the control group, which received Dulbecco’s Modified Eagle Medium (DMEM) alone, began to succumb to the infection on day 4, with all mice dying by day 6. On day 6, the average clinical score of the mice in the control group was 5. […] Treatment with 1 mg/kg C15 improved survival rates by 60%, while 5 mg/kg C15 provided complete protection, achieving a 100% survival rate (Fig. 7D).
ICR pregnant specific pathogen-free mice were purchased from Beijing Vital River Laboratory. Pregnant mice gave birth approximately 5 days after arrival at the laboratory. One day-old ICR neonatal mice were used to establish the CA6 infection mouse model. The CA6 virus, at a concentration of 10^7 TCID50/mL, was mixed with varying concentrations of C15 (1 and 5 mg/kg) and intracranially injected into the 1 day-old neonatal mice (10 µL per mouse). Five experimental groups were designed, and observations of various indicators were conducted over the subsequent 7 days, as well as samples collected for analysis. […]

RD cells = conditions: 48 h treatment, CCK-8, absorbance 450 nm, n = 3
EVD68 [3] = conditions: read-out: EC50 for EVD68; RD cells, 48 h, intracellular VP1 mRNA by RT-qPCR vs GAPDH, three independent experiments, four-parameter fit
CA16 = conditions: read-out: EC50 for CA16; RD cells, 48 h, intracellular VP1 mRNA by RT-qPCR vs GAPDH, three independent experiments, four-parameter fit
[4] = target: Enterovirus D68 (EVD68) virion, strain US/KY/14-18953 (enterovirus D68)
[5] = target: Coxsackievirus A6 (CA6) virion, strain changchun046/CHN/2013 (coxsackievirus A6)
EVD68 [6] = test: Purified PF4-His added to cells infected with EVD68; type: cell-based, enterovirus D68; conditions: increasing doses of purified PF4-His, 48 h, Western blot, RT-qPCR, TCID50
Experimental: (§1) (A and B) HEK-293T cells transfected with cDNA-PF4-Myc or the VR1012 expression vector serving as a control. […] (C and D) Viral loads in the supernatant were evaluated by measuring VP1 gene mRNA levels using reverse transcription quantitative PCR (RT-qPCR). (E and H) PF4-His proteins expressed in Escherichia coli were added to the cell supernatant at the indicated concentration, and the cells were simultaneously infected with CA6 or EVD68. Cell lysates and supernatants (concentrated 100-fold) were collected at 48 h. Western blot was performed to detect the viral VP1 protein in the cells and supernatant, with tubulin serving as a loading control. (F and I) Intracellular mRNA levels of VP1 were determined by RT-qPCR, using GAPDH as a control. (G and J) 50% tissue culture infective dose (TCID50) assays were performed using supernatants collected from infected rhabdomyosarcoma cells at 48 h, containing various concentrations of PF4-His.
(§2) PF4 is a secreted protein. To further assess its anti-viral potential, PF4 proteins were expressed and purified from Escherichia coli. […]
(§3) The cDNA of PF4-His with His tag at the N-terminus was synthesized and inserted into PEXs-DH by Comate Bioscience Company and expressed in E. coli BL21-derived cells. […] The […] of the resulting proteins was determined through BCA Protein Assay Kits (Epizyme, #ZJ102L) analysis.

CA6 [7] = test: Purified PF4-His added to cells infected with CA6; type: cell-based, coxsackievirus A6; conditions: increasing doses of purified PF4-His, 48 h, Western blot, RT-qPCR, TCID50
Experimental: as §1, §2, §3

With QAPLYKKIIKKLLES [C15] the EC50 (CA6 [1]) was 3.12 nM, the EC50 (EV71) was 5.36 nM and the “Toxicity in neonatal mice (clinical scores, body weight, survival rates versus DMEM control)” value ([2]; 5 mg/kg C15 without CA6 infection, intracranial, 1-day-old ICR mice) was “no toxicity”. The “VITT-related symptoms (weight loss, nosebleeds, gum bleeding, gastrointestinal bleeding)” value ([2]; injection of C15 alone in mice) was “did not result in VITT-related symptoms”, the 50% cytotoxic concentration (RD cells) was > 100 µM and the EC50 (EVD68 [3]) was 5.41 nM. For the same molecule, the EC50 (CA16) was 10 nM.

QAPLYKKIIKKLLES [C15 peptide (C-terminal 15 amino acids of PF4)] showed an EC50 of inhibition of EVD68 replication in RD cells (intracellular VP1 mRNA by RT-qPCR, 48 h) [4] of 5.41 nM and an EC50 of inhibition of CA6 replication in RD cells (intracellular VP1 mRNA by RT-qPCR, 48 h) [5] of 3.12 nM.

B1: PF4-His: Platelet factor 4 with His tag at the N-terminus, expressed in E. coli and purified (protein)
chain: EAEEDGDLQCLCVKTTSQVRPRHITSLEVIKAGPHCPTAQLIATLKNGRKICLDLQAPLYKKIIKKLLES
modifications: left off: Myc, N-terminal, kept
notes: Platelet factor 4 with His tag at the N-terminus, expressed in E. coli and purified
With B1 the “VP1 protein and mRNA levels of EVD68 and viral titer in supernatant” value (EVD68 [6]) was “gradually decreased” and the “VP1 protein and mRNA levels of CA6 and viral titer in supernatant” value (CA6 [7]) was “gradually decreased”.
